This is an account of results in PMC3743770, “A Selective HDAC 1/2 Inhibitor Modulates Chromatin and Gene Expression in Brain and Alters Mouse Behavior in Two Mood-Related Tests” (PLoS ONE, 2013).

The test system of data set [1] is 80 common CNS targets including receptors, channels and transporters. Nature of the data set: CNS target binding assays (Cerep High-Throughput Profile P-3). Particulars: 10 µM, duplicate; significance 50% inhibition of control binding. The source says:
The specific ligand binding to the receptors is defined as the difference between the total binding and the nonspecific binding determined in the presence of an excess of unlabelled ligand. […] The experiment was accepted in accordance with Cerep’s validation Standard Operating Procedure.

A short description of data set [2]: Mouse brain pharmacokinetics. It counts as in vivo. The protocol: Plasma, brain samples, and dose formulations, were analyzed as previously described using high performance liquid chromatography/mass spectrometry. Data acquisition and control system were created using Analyst 1.4 software (ABI Inc, Canada).
The next data set deals with C57BL/6 mice. Nature of the data set: Forced-swim test (FST). Particulars: chronic i.p., day 10; Cpd-60 45 mg/kg, SAHA 25 mg/kg; vs vehicle. It counts as in vivo, mouse. The procedure: Compounds were administered between 9 am and 1 pm for 7 days prior to the start of behavioral testing, and after completion of each daily session during behavioral testing. Testing was performed 18–24 hr after the previous treatment to avoid transient effects. Amphetamine-induced hyperlocomotion (AIH) was performed as previously described on days 7–9 of treatment with activity measured before and after amphetamine challenge (AccuScan Instruments, Inc.). Forced-swim test (FST) behavior was performed as previously described on day 10 of treatment and total time spent immobile during a 6 min session was scored automatically (Ethovision; Noldus). Treatment effects were analyzed by one way analysis of variance (ANOVA) with post hoc analysis using Least Squared Differences test (SPSS v18.0 IBM).

Data set [3] concerns transcripts in PFC, NAc and HIP. Nature of the data set: Whole genome transcript profiling of brain regions (microarray). Type of data set: in vivo, mouse. The procedure:
Frozen mouse brains (n = 6/treatment group) were rapidly dissected at 4°C to isolate medial prefrontal cortex (PFC), nucleus accumbens (NAc) and hippocampus (HIP) for mRNA extraction. Whole genome transcript profiling was performed using the Illumina MouseWG-6 Expression BeadChip with subsequent validation by quantitative real-time PCR (qPCR) and is available online at the NCBI Gene Expression Omnibus repository (GSE47452).
Frozen mouse brains (n = 6/ treatment group) were rapidly dissected at 4°C, isolating medial prefrontal cortex, nucleus accumbens and hippocampus. […] For microarray experiments on Illumina MouseWG-6 BeadChips, RNA samples were pooled from two biological replicates such that the total number of samples was 27 (3 treatment groups x 3 brain regions x 3 RNA pools representing two mice per pool). All microarray analysis and gene set analysis (GSA) was performed using GeneSpring software (v.11.5.1) with raw signals adjusted using quantile normalization and baseline transformation with the median signal in all samples set to zero. Data were included in subsequent analyses if the normalized signal, thresholded at 0.8, was ‘present’ for 3 of 3 replicates for like treatment and tissue groups. […] Primer sequences for qPCR validation were designed using NCBI PRIMER-BLAST (Table S2).

Data set [4] has as its system histone H4K12 acetylation in cultured primary mouse neuronal cells. Nature of the data set: Mouse primary neuronal histone acetylation assay. Particulars: Neuron, 24 h, read-out: EC50 for H4K12 acetylation.
For a further data set, the target named is HDAC5 (Homo sapiens, UniProt Q9UQL6). Nature of the data set: HDAC inhibition assay, recombinant enzyme, Caliper EZ reader.
HDAC5, sequence (Q9UQL6 whole entry): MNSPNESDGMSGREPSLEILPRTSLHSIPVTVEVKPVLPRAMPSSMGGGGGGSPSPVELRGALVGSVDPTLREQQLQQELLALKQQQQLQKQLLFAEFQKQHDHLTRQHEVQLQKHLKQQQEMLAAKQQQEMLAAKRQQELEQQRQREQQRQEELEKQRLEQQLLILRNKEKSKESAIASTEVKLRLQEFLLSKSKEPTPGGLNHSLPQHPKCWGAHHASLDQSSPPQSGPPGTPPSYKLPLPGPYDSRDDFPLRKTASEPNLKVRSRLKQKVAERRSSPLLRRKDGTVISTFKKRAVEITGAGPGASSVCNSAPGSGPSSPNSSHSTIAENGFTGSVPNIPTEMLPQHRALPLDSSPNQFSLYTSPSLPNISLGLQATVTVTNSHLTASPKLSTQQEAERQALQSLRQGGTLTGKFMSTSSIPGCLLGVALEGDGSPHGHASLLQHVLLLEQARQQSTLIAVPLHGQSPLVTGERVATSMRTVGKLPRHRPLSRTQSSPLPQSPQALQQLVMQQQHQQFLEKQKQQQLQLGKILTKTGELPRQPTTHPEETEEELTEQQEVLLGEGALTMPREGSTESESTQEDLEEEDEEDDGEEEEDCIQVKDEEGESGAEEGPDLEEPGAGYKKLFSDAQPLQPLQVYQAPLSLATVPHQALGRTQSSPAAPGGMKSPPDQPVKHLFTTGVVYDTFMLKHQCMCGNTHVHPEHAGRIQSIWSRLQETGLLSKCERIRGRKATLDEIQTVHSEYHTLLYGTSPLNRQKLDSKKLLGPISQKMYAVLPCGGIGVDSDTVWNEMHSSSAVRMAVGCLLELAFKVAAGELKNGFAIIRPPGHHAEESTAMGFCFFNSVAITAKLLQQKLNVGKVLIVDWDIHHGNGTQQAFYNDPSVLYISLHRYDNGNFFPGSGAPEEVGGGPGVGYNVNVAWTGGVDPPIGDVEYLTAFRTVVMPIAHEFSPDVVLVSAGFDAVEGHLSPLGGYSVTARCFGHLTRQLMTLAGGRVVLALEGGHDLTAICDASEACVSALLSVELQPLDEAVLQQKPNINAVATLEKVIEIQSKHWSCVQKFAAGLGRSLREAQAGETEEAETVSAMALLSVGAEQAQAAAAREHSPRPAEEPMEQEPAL
A further data set has as its target T1, HDAC7 (Homo sapiens, UniProt Q8WUI4).
T1 sequence (Q8WUI4 1-952): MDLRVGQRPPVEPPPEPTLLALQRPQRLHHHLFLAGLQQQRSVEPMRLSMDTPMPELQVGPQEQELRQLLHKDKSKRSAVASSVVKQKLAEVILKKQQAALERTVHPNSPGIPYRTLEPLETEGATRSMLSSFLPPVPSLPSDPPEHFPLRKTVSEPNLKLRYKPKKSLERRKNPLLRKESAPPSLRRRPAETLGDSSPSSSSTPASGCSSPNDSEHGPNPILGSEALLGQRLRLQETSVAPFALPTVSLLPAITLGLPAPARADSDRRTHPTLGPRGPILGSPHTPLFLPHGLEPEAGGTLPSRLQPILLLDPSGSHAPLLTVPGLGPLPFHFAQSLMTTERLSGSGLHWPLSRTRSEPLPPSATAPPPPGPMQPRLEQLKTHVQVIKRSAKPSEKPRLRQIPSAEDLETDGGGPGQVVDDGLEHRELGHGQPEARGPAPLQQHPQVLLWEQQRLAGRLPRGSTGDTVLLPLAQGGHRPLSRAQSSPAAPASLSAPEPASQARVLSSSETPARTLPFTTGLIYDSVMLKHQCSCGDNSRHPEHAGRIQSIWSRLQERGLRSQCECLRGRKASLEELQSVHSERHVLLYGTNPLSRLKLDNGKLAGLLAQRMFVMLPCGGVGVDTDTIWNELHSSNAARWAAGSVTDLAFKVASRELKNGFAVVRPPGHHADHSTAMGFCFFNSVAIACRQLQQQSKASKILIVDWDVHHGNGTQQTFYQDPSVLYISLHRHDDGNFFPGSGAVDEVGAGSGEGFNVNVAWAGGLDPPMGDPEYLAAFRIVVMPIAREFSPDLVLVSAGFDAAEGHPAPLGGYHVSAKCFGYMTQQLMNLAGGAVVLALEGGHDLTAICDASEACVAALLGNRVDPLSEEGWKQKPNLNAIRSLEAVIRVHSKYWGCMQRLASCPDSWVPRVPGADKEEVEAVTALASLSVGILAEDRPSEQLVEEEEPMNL
The description is as above.

The next data set addresses HDAC9 (Homo sapiens, UniProt Q9UKV0). The description is as above.
Data set [5] deals with H4K12ac around TSS of Agxt2l1, Sgk1, Sult1a1, Tsc22d3. Nature of the data set: Chromatin immunoprecipitation (H4K12ac) of nucleus accumbens with qPCR. Conditions: NAc; 0.5 kB downstream of each TSS; 45 mg/kg i.p. 10 days.

The structures appear in SMILES notation.

HDAC9, sequence (Q9UKV0 whole entry): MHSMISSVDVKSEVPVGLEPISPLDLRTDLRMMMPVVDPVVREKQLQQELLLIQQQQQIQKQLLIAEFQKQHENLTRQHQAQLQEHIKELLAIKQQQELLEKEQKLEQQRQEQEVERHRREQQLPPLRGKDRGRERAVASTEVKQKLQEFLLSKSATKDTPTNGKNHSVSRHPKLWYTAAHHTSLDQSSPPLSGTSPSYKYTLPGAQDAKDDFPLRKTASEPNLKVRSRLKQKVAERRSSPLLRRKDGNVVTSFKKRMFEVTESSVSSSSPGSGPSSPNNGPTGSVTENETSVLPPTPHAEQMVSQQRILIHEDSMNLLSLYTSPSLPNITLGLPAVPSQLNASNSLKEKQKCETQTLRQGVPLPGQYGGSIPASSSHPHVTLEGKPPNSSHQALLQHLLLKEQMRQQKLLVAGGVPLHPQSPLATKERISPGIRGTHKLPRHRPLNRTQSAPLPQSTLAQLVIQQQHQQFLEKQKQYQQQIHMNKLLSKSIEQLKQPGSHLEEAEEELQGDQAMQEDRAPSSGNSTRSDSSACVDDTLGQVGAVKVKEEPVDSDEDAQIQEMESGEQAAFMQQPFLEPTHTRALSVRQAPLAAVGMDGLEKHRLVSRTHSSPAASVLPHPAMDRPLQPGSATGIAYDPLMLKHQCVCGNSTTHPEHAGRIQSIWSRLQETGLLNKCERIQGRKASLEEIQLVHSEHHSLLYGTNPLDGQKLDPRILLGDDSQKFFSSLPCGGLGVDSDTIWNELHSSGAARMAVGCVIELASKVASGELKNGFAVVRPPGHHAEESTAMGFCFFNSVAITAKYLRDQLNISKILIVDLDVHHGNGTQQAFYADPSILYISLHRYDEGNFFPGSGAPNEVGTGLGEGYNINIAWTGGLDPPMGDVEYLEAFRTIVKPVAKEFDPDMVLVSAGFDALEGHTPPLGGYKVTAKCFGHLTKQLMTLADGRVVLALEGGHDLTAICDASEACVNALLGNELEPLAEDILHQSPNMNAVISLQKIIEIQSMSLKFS

In the case of `CC(=O)Nc1ccc(C(=O)Nc2cc(-c3cccs3)ccc2N)cc1` [Cpd-60], the “binding to 80 CNS targets” value in data set [1] is listed as “no significant binding to any of the targets”. For the same compound, in data set [2] (C57BL/6, mouse, brain, intraperitoneal, 45 mg/kg, systemic treatment, read-out: brain concentration maintained for at least 8 hr), the concentration at 8 hr is more than 100 nM. Further, the Cmax in [2] (C57BL/6, mouse, brain, ip, 45 mg/kg, read-out: brain maximum concentration (Cmax)) is 830 nM. Further, the half-life in [2] (C57BL/6, mouse, brain, ip, read-out: brain T1/2 (converted)) is 6.44 h. Also, the “time to peak brain concentration” value in [2] (systemic treatment) is not above 5 min. Also, in the data set with C57BL/6 mice, the “reduction in immobility time” value was 67%. The “overlap with the 121 transcripts modulated by lithium” value in [3] (Gene Set Enrichment Analysis) amounted to 11. Besides, in [3] (PFC, NAc, HIP compiled, ≥[…] vs vehicle), the “transcripts altered across the three regions” value came out at 390. Moreover, the “transcripts up- or down-regulated, summed across the three brain regions” value in data set [3] (Tukey's HSD p<0.05 vs vehicle) was 1609. The EC50 in data set [4] was determined as 7.2 µM. Further, the concentration for half-maximal inhibition (IC50) on HDAC5, on HDAC7 and at HDAC9 was more than 30 µM in each case. Moreover, in data set [5], the “H4K12ac levels downstream of the TSS” value is given as “lower than vehicle-treated controls”.
